Laboratory results published in patent US8247211B2, “Glycopeptide antibiotics” (American Cyanamid Company, priority 2001, dated 2012).

Columns and labels:
Test in all cases: In vitro antibacterial evaluation: minimum inhibitory concentration (MIC), broth dilution method
Format in all cases: cell-based
Settings in all cases: 18 hours at 35° C.
Enterococcus sp. = tested on: Enterococcus sp.
In short: (§1)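 Inoculum: 5×10^5 CFU/mL. Range: 64-0.06 μg/mL. Medium: Muller-Hinton II […]; NCCLS M7-A2 broth dilution. Endpoint: lowest concentration inhibiting growth. Strains include methicillin-, penicillin- and/or vancomycin-resistant clinical isolates.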

Escherichia coli = tested on: Escherichia coli
In short: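 Values are minimum inhibitory concentrations, meaning the smallest antibiotic concentration that stops growth of the organism. They come from broth dilution in Muller-Hinton II […] per NCCLS guidance (M7-A2), using 5×10^5 CFU/mL and concentrations from 64 to 0.06 μg/mL.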

Staphylococcus sp. = tested on: Staphylococcus sp.
In short: as §1

Streptococcus sp. = tested on: Streptococcus sp.
In short: as §1

Substance: γ-O-[(Heptylamino)carbonyl]-cyclo[glycyl-β-methylphenylalanyl-O-(4-O-hexopyranosylhexopyranosyl)tyrosyl-3-(2-iminoimidazolidin-4-yl)seryl-3-(3-hexopyranosyl-2-iminoimidazolidin-4-yl)serylseryl] [Example 253b]
- MIC Enterococcus avium (GC 4558) (Enterococcus sp.; Enterococcus avium (GC 4558)): 8 µg/mL
- MIC Enterococcus faecalis (ATCC 29212) (Enterococcus sp.; Enterococcus faecalis (ATCC 29212)): 8 µg/mL
- MIC Enterococcus faecalis (GC 2242) (Enterococcus sp.; Enterococcus faecalis (GC 2242)): 8 µg/mL
- MIC Enterococcus faecalis (GC 2691) (Enterococcus sp.; Enterococcus faecalis (GC 2691)): 8 µg/mL
- MIC Enterococcus faecalis (GC 3059) (Enterococcus sp.; Enterococcus faecalis (GC 3059)): 16 µg/mL
- MIC Enterococcus faecalis (GC 4552) (Enterococcus sp.; Enterococcus faecalis (GC 4552)): 8 µg/mL
- MIC Enterococcus faecalis (GC 4553) (Enterococcus sp.; Enterococcus faecalis (GC 4553)): 8 µg/mL
- MIC Enterococcus faecalis (GC 4554) (Enterococcus sp.; Enterococcus faecalis (GC 4554)): 8 µg/mL
- MIC Enterococcus faecalis (GC 6189) (Enterococcus sp.; Enterococcus faecalis (GC 6189)): 8 µg/mL
- MIC Enterococcus faecium (GC 2243) (Enterococcus sp.; Enterococcus faecium (GC 2243)): 8 µg/mL
- MIC Enterococcus faecium (GC 4556) (Enterococcus sp.; Enterococcus faecium (GC 4556)): 8 µg/mL
- MIC Enterococcus faecium (GC 4557) (Enterococcus sp.; Enterococcus faecium (GC 4557)): 4 µg/mL
- MIC Enterococcus faecalis (ATCC 29212) (Enterococcus sp.; broth dilution, strain ATCC 29212): 8 µg/mL
- MIC Enterococcus faecalis (GC 2242) (Enterococcus sp.; broth dilution, strain GC 2242): 8 µg/mL
- MIC Enterococcus faecium (GC 2243) (Enterococcus sp.; broth dilution, strain GC 2243): 8 µg/mL
- MIC Enterococcus faecalis (GC 2691) (Enterococcus sp.; broth dilution, strain GC 2691): 8 µg/mL
- MIC Enterococcus faecalis (GC 3059) (Enterococcus sp.; broth dilution, strain GC 3059): 16 µg/mL
- MIC Enterococcus faecalis (GC 4552) (Enterococcus sp.; broth dilution, strain GC 4552): 8 µg/mL
- MIC Enterococcus faecalis (GC 4553) (Enterococcus sp.; broth dilution, strain GC 4553): 8 µg/mL
- MIC Enterococcus faecalis (GC 4554) (Enterococcus sp.; broth dilution, strain GC 4554): 8 µg/mL
- MIC Enterococcus faecium (GC 4556) (Enterococcus sp.; broth dilution, strain GC 4556): 8 µg/mL
- MIC Enterococcus faecium (GC 4557) (Enterococcus sp.; broth dilution, strain GC 4557): 4 µg/mL
- MIC Enterococcus avium (GC 4558) (Enterococcus sp.; broth dilution, strain GC 4558): 8 µg/mL
- MIC Enterococcus faecalis (GC 6189) (Enterococcus sp.; broth dilution, strain GC 6189): 8 µg/mL
- MIC Escherichia coli (ATCC 25922) (Escherichia coli; Escherichia coli (ATCC 25922)): 64 µg/mL
- MIC Escherichia coli (GC 4559) (Escherichia coli; Escherichia coli (GC 4559)): 64 µg/mL
- MIC Escherichia coli (GC 4560) (Escherichia coli; Escherichia coli (GC 4560)): 2 µg/mL
- MIC Coagulase Negative Staphylococcus (GC 4547) (Staphylococcus sp.; Coagulase Negative Staphylococcus (GC 4547)): 4 µg/mL
- MIC Coagulase Negative Staphylococcus (GC 4548) (Staphylococcus sp.; Coagulase Negative Staphylococcus (GC 4548)): 2 µg/mL
- MIC Coagulase Negative Staphylococcus (GC 4549) (Staphylococcus sp.; Coagulase Negative Staphylococcus (GC 4549)): 2 µg/mL
- MIC Coagulase Negative Staphylococcus (GC 4551) (Staphylococcus sp.; Coagulase Negative Staphylococcus (GC 4551)): 4 µg/mL
- MIC Coagulase Negative Staphylococcus (GC 6257) (Staphylococcus sp.; Coagulase Negative Staphylococcus (GC 6257)): 2 µg/mL
- MIC Staphylococcus aureus (ATCC 29213) (Staphylococcus sp.; Staphylococcus aureus (ATCC 29213)): 4 µg/mL
- MIC Staphylococcus aureus (GC 1131) (Staphylococcus sp.; Staphylococcus aureus (GC 1131)): 4 µg/mL
- MIC Staphylococcus aureus (GC 3051) (Staphylococcus sp.; Staphylococcus aureus (GC 3051)): 2 µg/mL
- MIC Staphylococcus aureus (GC 3053) (Staphylococcus sp.; Staphylococcus aureus (GC 3053)): 8 µg/mL
- MIC Staphylococcus aureus (GC 4541) (Staphylococcus sp.; Staphylococcus aureus (GC 4541)): 2 µg/mL
- MIC Staphylococcus aureus (GC 4542) (Staphylococcus sp.; Staphylococcus aureus (GC 4542)): 4 µg/mL
- MIC Staphylococcus aureus (GC 4544) (Staphylococcus sp.; Staphylococcus aureus (GC 4544)): 4 µg/mL
- MIC Staphylococcus aureus (GC 4545) (Staphylococcus sp.; Staphylococcus aureus (GC 4545)): 2 µg/mL
- MIC Staphylococcus aureus-SMITH (GC 4543) (Staphylococcus sp.; Staphylococcus aureus-SMITH (GC 4543)): 2 µg/mL
- MIC Staphylococcus haemolyticus (GC 4546) (Staphylococcus sp.; Staphylococcus haemolyticus (GC 4546)): 2 µg/mL
- MIC Staphylococcus aureus (ATCC 29213) (Staphylococcus sp.; broth dilution, strain ATCC 29213): 4 µg/mL
- MIC Staphylococcus aureus (GC 1131) (Staphylococcus sp.; broth dilution, strain GC 1131): 4 µg/mL
- MIC Staphylococcus aureus (GC 3051) (Staphylococcus sp.; broth dilution, strain GC 3051): 2 µg/mL
- MIC Staphylococcus aureus (GC 3053) (Staphylococcus sp.; broth dilution, strain GC 3053): 8 µg/mL
- MIC Staphylococcus aureus (GC 4541) (Staphylococcus sp.; broth dilution, strain GC 4541): 2 µg/mL
- MIC Staphylococcus aureus (GC 4542) (Staphylococcus sp.; broth dilution, strain GC 4542): 4 µg/mL
- MIC Staphylococcus aureus-SMITH (GC 4543) (Staphylococcus sp.; broth dilution, strain GC 4543): 2 µg/mL
- MIC Staphylococcus aureus (GC 4544) (Staphylococcus sp.; broth dilution, strain GC 4544): 4 µg/mL
- MIC Staphylococcus aureus (GC 4545) (Staphylococcus sp.; broth dilution, strain GC 4545): 2 µg/mL
- MIC Staphylococcus haemolyticus (GC 4546) (Staphylococcus sp.; broth dilution, strain GC 4546): 2 µg/mL
- MIC Coagulase Negative Staphylococcus (GC 4547) (Staphylococcus sp.; broth dilution, strain GC 4547): 4 µg/mL
- MIC Coagulase Negative Staphylococcus (GC 4548) (Staphylococcus sp.; broth dilution, strain GC 4548): 2 µg/mL
- MIC Coagulase Negative Staphylococcus (GC 4549) (Staphylococcus sp.; broth dilution, strain GC 4549): 2 µg/mL
- MIC Coagulase Negative Staphylococcus (GC 4551) (Staphylococcus sp.; broth dilution, strain GC 4551): 4 µg/mL
- MIC Coagulase Negative Staphylococcus (GC 6257) (Staphylococcus sp.; broth dilution, strain GC 6257): 2 µg/mL
- MIC Streptococcus agalactiae (GC 4564) (Streptococcus sp.; Streptococcus agalactiae (GC 4564)): 1 µg/mL
- MIC Streptococcus pneumoniae (ATCC 6301) (Streptococcus sp.; Streptococcus pneumoniae (ATCC 6301)): 0.25 µg/mL
- MIC Streptococcus pneumoniae (GC 1894) (Streptococcus sp.; Streptococcus pneumoniae (GC 1894)): <0.06 µg/mL
- MIC Streptococcus pneumoniae (GC 4565) (Streptococcus sp.; Streptococcus pneumoniae (GC 4565)): 0.25 µg/mL
- MIC Streptococcus pyogenes (GC 4563) (Streptococcus sp.; Streptococcus pyogenes (GC 4563)): 1 µg/mL
- MIC Streptococcus pneumoniae (ATCC 6301) (Streptococcus sp.; broth dilution, strain ATCC 6301): 0.25 µg/mL
- MIC Streptococcus pneumoniae (GC 1894) (Streptococcus sp.; broth dilution, strain GC 1894): <0.06 µg/mL
- MIC Streptococcus pyogenes (GC 4563) (Streptococcus sp.; broth dilution, strain GC 4563): 1 µg/mL
- MIC Streptococcus agalactiae (GC 4564) (Streptococcus sp.; broth dilution, strain GC 4564): 1 µg/mL
- MIC Streptococcus pneumoniae (GC 4565) (Streptococcus sp.; broth dilution, strain GC 4565): 0.25 µg/mL
